{"source": "patent US11427869B2", "about": "“T cell balance gene expression, compositions of matters and methods of use thereof” (THE BROAD INSTITUTE, INC., priority 2015, dated 2022)", "system": "CD5L−/− Th17 cells", "assay": "Nanostring nCounter Th17 codeset (312 genes), PUFA- or control-treated CD5L−/− Th17 cells", "format": "cell-based, mouse", "conditions": "CD5LKO Th17 cells + PUFA", "source_text": "Applicants studied the contribution of lipid saturation to Th17 cell pathogenicity. […] Applicants analyzed the expression of a 312 gene signature of Th17 cell differentiation and function (Yosef et al., 2013) in SFA- or control-treated WT Th17 cells and in PUFA- or control-treated CD5L−/− Th17 cells differentiated with TGF-81+IL-6.\nT cell differentiation culture. Naïve CD4+CD44−CD62L+CD25− T cells or Effector memory CD4+CD44+CD62L− were sorted using BD FACSAria sorter and activated with plate-bound anti-CD3 and anti-CD28 antibodies (both at 2 μg/ml) in the presence of cytokines at a concentration of 2.5×10^5 cells/ml. For Th17 differentiation: 2 ng/ml of rhTGFβ1, 2 ng/ml of rhTGFβ3, 25 ng/ml rmIL-6, 20 ng/ml rmIL-18 (all from Miltenyi Biotec) and 20 ng/ml rmIL-23 (R & D systems) were used at various combinations as specified in figures. For Th1 differentiation, 20 ng/ml rmIL-12 (R & D systems); for Th2 differentiation 20 ng/ml rmIL-4 (Miltenyi Biotec); for iTreg differentiation, 2.5 ng/ml of rhTGFβ1 were used (Miltenyi Biotec). For differentiation experiments, cells were harvested at 48 hours. For restimulation experiments, cells were differentiated for 48 hours and resuspended in fresh media with no additional cytokines for 48-72 hours. Cells were re-stimulated with PMA/ionomycin for four hours before analysis for cytokines by intracellular cytokine staining. For experiments with exogenous fatty acid, fatty acids were purchased and resuspended first with serum-free media containing BSA prior being added to culture.\nNanostring nCounter. Nanostring nCounter platform (NanoString Technologies) is used to measure the number of RNA transcripts in RNA samples (FIG. 16I, FIG. 18D). A codeset containing 312 signature genes of Th17 cell differentiation and function as well as 4 additional house-keeping genes were custom-made (Yosef et al., 2013) and used in these experiments. Experimental procedures as detailed by the manufacturer is strictly followed."}
{"smiles": "CCCCC/C=C\\C/C=C\\C/C=C\\C/C=C\\CCCC(=O)O", "note": "[PUFA, arachidonic acid]", "values": [{"measurement": "ATF2 expression (Nanostring), normalized to WT", "result": 0.89}, {"measurement": "Abcg2 expression (Nanostring), normalized to WT", "result": 1.20}, {"measurement": "Acvr2a expression (Nanostring), normalized to WT", "result": 1.32}, {"measurement": "Ahr expression (Nanostring), normalized to WT", "result": 1.08}, {"measurement": "Arl5a expression (Nanostring), normalized to WT", "result": 1.33}, {"measurement": "Atf4 expression (Nanostring), normalized to WT", "result": 0.73}, {"measurement": "BC021614 expression (Nanostring), normalized to WT", "result": 1.04}, {"measurement": "Bcl2l11 expression (Nanostring), normalized to WT", "result": 0.71}, {"measurement": "Bcl3 expression (Nanostring), normalized to WT", "result": 1.13}, {"measurement": "Bcl11b expression (Nanostring), normalized to WT", "result": 1.03}, {"measurement": "Bhlhe40 expression (Nanostring), normalized to WT", "result": 0.70}, {"measurement": "Casp3 expression (Nanostring), normalized to WT", "result": 0.71}, {"measurement": "Casp4 expression (Nanostring), normalized to WT", "result": 1.52}, {"measurement": "Ccl1 expression (Nanostring), normalized to WT", "result": 0.67}, {"measurement": "Ccl20 expression (Nanostring), normalized to WT", "result": 0.84}, {"measurement": "Ccr4 expression (Nanostring), normalized to WT", "result": 1.69}, {"measurement": "Ccr8 expression (Nanostring), normalized to WT", "result": 0.71}, {"measurement": "Cd9 expression (Nanostring), normalized to WT", "result": 1.27}, {"measurement": "Cd70 expression (Nanostring), normalized to WT", "result": 0.77}, {"measurement": "Cd83 expression (Nanostring), normalized to WT", "result": 0.88}, {"measurement": "Cd86 expression (Nanostring), normalized to WT", "result": 1.73}, {"measurement": "Cd247 expression (Nanostring), normalized to WT", "result": 1.32}, {"measurement": "Clcf1 expression (Nanostring), normalized to WT", "result": 1.25}, {"measurement": "Csf2 expression (Nanostring), normalized to WT", "result": 1.20}, {"measurement": "Ctla4 expression (Nanostring), normalized to WT", "result": 1.63}, {"measurement": "Cxcl10 expression (Nanostring), normalized to WT", "result": 1.64}, {"measurement": "Cxcr3 expression (Nanostring), normalized to WT", "result": 1.44}, {"measurement": "Cxcr4 expression (Nanostring), normalized to WT", "result": 0.87}, {"measurement": "Cxcr5 expression (Nanostring), normalized to WT", "result": 1.42}, {"measurement": "EBF1 expression (Nanostring), normalized to WT", "result": 1.64}, {"measurement": "Egr2 expression (Nanostring), normalized to WT", "result": 1.64}, {"measurement": "Elk3 expression (Nanostring), normalized to WT", "result": 1.04}, {"measurement": "Ercc5 expression (Nanostring), normalized to WT", "result": 0.66}, {"measurement": "Etv6 expression (Nanostring), normalized to WT", "result": 1.70}, {"measurement": "Faim3 expression (Nanostring), normalized to WT", "result": 1.31}, {"measurement": "Fli1 expression (Nanostring), normalized to WT", "result": 1.35}, {"measurement": "Flna expression (Nanostring), normalized to WT", "result": 1.10}, {"measurement": "Foxo1 expression (Nanostring), normalized to WT", "result": 1.03}, {"measurement": "Foxp1 expression (Nanostring), normalized to WT", "result": 1.25}, {"measurement": "Foxp3 expression (Nanostring), normalized to WT", "result": 1.22}, {"measurement": "Frmd4b expression (Nanostring), normalized to WT", "result": 1.28}, {"measurement": "Fxd7 expression (Nanostring), normalized to WT", "result": 0.72}, {"measurement": "Gap43 expression (Nanostring), normalized to WT", "result": 0.68}, {"measurement": "Gem expression (Nanostring), normalized to WT", "result": 0.73}, {"measurement": "Gimap5 expression (Nanostring), normalized to WT", "result": 1.58}, {"measurement": "Gja1 expression (Nanostring), normalized to WT", "result": 0.66}, {"measurement": "Gmfg expression (Nanostring), normalized to WT", "result": 0.76}, {"measurement": "Grn expression (Nanostring), normalized to WT", "result": 1.16}, {"measurement": "Gusb expression (Nanostring), normalized to WT", "result": 0.94}, {"measurement": "Hip1r expression (Nanostring), normalized to WT", "result": 0.89}, {"measurement": "IL-33 expression (Nanostring), normalized to WT", "result": 0.66}, {"measurement": "Ifih1 expression (Nanostring), normalized to WT", "result": 1.25}, {"measurement": "Ifng expression (Nanostring), normalized to WT", "result": 0.93}, {"measurement": "Ikzf3 expression (Nanostring), normalized to WT", "result": 1.06}, {"measurement": "Il1r1 expression (Nanostring), normalized to WT", "result": 1.36}, {"measurement": "Il2ra expression (Nanostring), normalized to WT", "result": 0.99}, {"measurement": "Il3 expression (Nanostring), normalized to WT", "result": 1.45}, {"measurement": "Il4ra expression (Nanostring), normalized to WT", "result": 1.13}, {"measurement": "Il6st expression (Nanostring), normalized to WT", "result": 0.89}, {"measurement": "Il7r expression (Nanostring), normalized to WT", "result": 1.37}, {"measurement": "Il10 expression (Nanostring), normalized to WT", "result": 1.01}, {"measurement": "Il10ra expression (Nanostring), normalized to WT", "result": 0.95}, {"measurement": "Il12rb1 expression (Nanostring), normalized to WT", "result": 0.80}, {"measurement": "Il12rb2 expression (Nanostring), normalized to WT", "result": 1.60}, {"measurement": "Il17a expression (Nanostring), normalized to WT", "result": 1.11}, {"measurement": "Il17f expression (Nanostring), normalized to WT", "result": 0.71}, {"measurement": "Il21 expression (Nanostring), normalized to WT", "result": 0.97}, {"measurement": "Il23r expression (Nanostring), normalized to WT", "result": 1.11}, {"measurement": "Il27ra expression (Nanostring), normalized to WT", "result": 1.55}, {"measurement": "Inhba expression (Nanostring), normalized to WT", "result": 0.81}]}
